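1) Cells in 96-well plates. 2) Compound, 48 h, 5 concentrations. 3) Linear interpolation between surrounding doses. 4) Unreached endpoint = highest concentration. TGI: concentration producing complete growth inhibition.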
Experiments:
Assay in all cases: NCI-60 cell line screen, 48 h
HCT-116 colon = system: HCT-116 colon
NCI-H460 lung = system: NCI-H460 lung
HT29 colon = system: HT29 colon
DLD-1 colon = system: DLD-1 colon
SF-268 CNS = system: SF-268 CNS
TK-10 renal = system: TK-10 renal
CAKI-1 renal = system: CAKI-1 renal
RXF 393 renal = system: RXF 393 renal
OVCAR-3 ovarian = system: OVCAR-3 ovarian
A498 renal = system: A498 renal
XF 498 CNS = system: XF 498 CNS
CCRF-CEM leukemia = system: CCRF-CEM leukemia
OVCAR-4 ovarian = system: OVCAR-4 ovarian
SF-295 CNS = system: SF-295 CNS
SN12C renal = system: SN12C renal
M14 melanoma = system: M14 melanoma
SW-620 colon = system: SW-620 colon
K-562 leukemia = system: K-562 leukemia
OVCAR-5 ovarian = system: OVCAR-5 ovarian
SR leukemia = system: SR leukemia
U251 CNS = system: U251 CNS
SK-MEL-2 melanoma = system: SK-MEL-2 melanoma
UACC-62 melanoma = system: UACC-62 melanoma
LOX IMVI melanoma = system: LOX IMVI melanoma
MOLT-4 leukemia = system: MOLT-4 leukemia
RPMI-8226 leukemia = system: RPMI-8226 leukemia
OVCAR-8 ovarian = system: OVCAR-8 ovarian
HOP-92 NSCLC = system: HOP-92 NSCLC
A549 NSCLC = system: A549 NSCLC
M19-MEL melanoma = system: M19-MEL melanoma
HOP-62 NSCLC = system: HOP-62 NSCLC
UO-31 renal = system: UO-31 renal
SK-MEL-5 melanoma = system: SK-MEL-5 melanoma
HL-60(TB) leukemia = system: HL-60(TB) leukemia
HOP-18 NSCLC = system: HOP-18 NSCLC
SNB-19 CNS = system: SNB-19 CNS
786-0 renal = system: 786-0 renal
ACHN renal = system: ACHN renal
SF-539 CNS = system: SF-539 CNS
IGROV1 ovarian = system: IGROV1 ovarian
NCI-H226 lung = system: NCI-H226 lung
DMS 273 small cell lung = system: DMS 273 small cell lung
COLO 205 colon = system: COLO 205 colon
SNB-78 CNS = system: SNB-78 CNS
LXFL 529 NSCLC = system: LXFL 529 NSCLC
DMS 114 small cell lung = system: DMS 114 small cell lung
NCI-H23 lung = system: NCI-H23 lung
SK-OV-3 ovarian = system: SK-OV-3 ovarian
EKVX NSCLC = system: EKVX NSCLC
HCC-2998 colon = system: HCC-2998 colon
HCT-15 colon = system: HCT-15 colon
MALME-3M melanoma = system: MALME-3M melanoma
NCI-H522 lung = system: NCI-H522 lung
KM12 colon = system: KM12 colon
UACC-257 melanoma = system: UACC-257 melanoma
SNB-75 CNS = system: SNB-75 CNS
KM20L2 colon = system: KM20L2 colon
SK-MEL-28 melanoma = system: SK-MEL-28 melanoma

Measured: TGI

COC1=C(C(=O)OC(C)(C)C)[C@]2(C)C(C(=O)OC(C)(C)C)C(OC)=C(C(=O)OC(C)(C)C)[C@]2(C)C1C(=O)OC(C)(C)C (stereo partly drawn)
not listed: SK-MEL-28 melanoma
> 100 µM: all other assays above

CC(=S)NNC(=O)c1ccncc1
not listed: RPMI-8226 leukemia | DMS 114 small cell lung
> 100 µM: all other assays above
